Measurements reported in patent US7994172B2, “[1H-pyrazolo[3, 4-D]pyrimidin-4-yl]-piperidine or -piperazine compounds as serine-theoronine kinase modulators (P70s6k, Atk1 and Atk2) for the treatment of immunological, inflammatory and proliferative diseases” (Exelixis, Inc., priority 2004, dated 2011).

How the values were obtained:
Assay type in all cases: biochemical
[1] = biological target: T1, human Akt2 kinase (kinase domain residues K146-R480) (Homo sapiens, UniProt P31751); assay: Akt2 kinase assay, Luciferase-Coupled Chemiluminescent Kinase assay (LCCA); conditions: 2 μM ATP, 10 nM Akt2; read-out: Akt-2 inhibition IC50
T1 construct: human Akt2 kinase domain residues K146-R480; made in house
T1 sequence (P31751 146-480): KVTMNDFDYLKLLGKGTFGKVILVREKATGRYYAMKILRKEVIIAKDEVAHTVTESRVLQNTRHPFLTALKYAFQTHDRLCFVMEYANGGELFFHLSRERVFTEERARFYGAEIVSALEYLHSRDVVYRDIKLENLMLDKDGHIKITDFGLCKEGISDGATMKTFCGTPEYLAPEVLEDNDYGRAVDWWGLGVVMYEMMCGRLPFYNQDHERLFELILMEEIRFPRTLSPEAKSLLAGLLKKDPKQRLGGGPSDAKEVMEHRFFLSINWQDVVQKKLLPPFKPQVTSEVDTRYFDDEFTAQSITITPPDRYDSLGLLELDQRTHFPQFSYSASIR
Description: (§1) Kinase activity and compound inhibition are investigated using one or more of the three assay formats described below. The ATP concentrations for each assay are selected to be close to the Michaelis-Menten constant (KM) for each individual kinase. Dose-response experiments are performed at 10 different inhibitor concentrations in a 384-well plate format. The data are fitted to four-parameter equation (2) below; where Y is the observed signal, X is the inhibitor concentration, Min is the background signal in the absence of enzyme (0% enzyme activity), Max is the signal in the absence of inhibitor (100% enzyme activity), IC50 is the inhibitor concentration at 50% enzyme inhibition and H represents the empirical Hill's slope to measure the cooperativity. Typically H is close to unity. Y=Min+(Max−Min)/(1+(X/IC50)^H) Equation (2) p70S6 Kinase Assay
Biochemical activity of Akt2 kinase was assessed using a Luciferase-Coupled Chemiluminescent Kinase assay (LCCA) format. Kinase activity was measured as the percent ATP remaining following the kinase reaction. Remaining ATP was detected by luciferase-luciferin-coupled chemiluminescence. Specifically, the reaction was initiated by mixing test compounds, 2 μM ATP, 5 μM crosstide peptide and 10 nM Akt2 (baculovirus expressed human Akt2 kinase domain residues K146-R480) in a 20 uL assay buffer (20 mM Tris-HCL pH 7.5, 10 mM MgCl2, 0.03% Triton X-100, 1 mM DTT, 3 mM MnCl2). The mixture is incubated at ambient temperature for 2 hours after which 20 μL luciferase-luciferin mix is added and the chemiluminescent signal read using a Wallac Victor2 reader. The luciferase-luciferin mix consists of 50 mM HEPES, pH 7.8, 8.5 μg/mL oxalic acid (pH 7.8), 5 (or 50) mM DTT, 0.4% Triton X-100, 0.25 mg/mL coenzyme A, 63 uM AMP, 28 μg/mL luciferin and 40,000 units/mL luciferase.

[2] = biological target: T2, human Akt1 kinase (kinase domain residues R144-A480, activated with PDK1) (Homo sapiens, UniProt P31749); assay: Akt1 kinase assay, Luciferase-Coupled Chemiluminescent Kinase assay (LCCA); conditions: 1 μM ATP, 1.3 nM Akt1; read-out: Akt-1 inhibition IC50
T2 construct: made in house
T2 sequence (P31749 144-480): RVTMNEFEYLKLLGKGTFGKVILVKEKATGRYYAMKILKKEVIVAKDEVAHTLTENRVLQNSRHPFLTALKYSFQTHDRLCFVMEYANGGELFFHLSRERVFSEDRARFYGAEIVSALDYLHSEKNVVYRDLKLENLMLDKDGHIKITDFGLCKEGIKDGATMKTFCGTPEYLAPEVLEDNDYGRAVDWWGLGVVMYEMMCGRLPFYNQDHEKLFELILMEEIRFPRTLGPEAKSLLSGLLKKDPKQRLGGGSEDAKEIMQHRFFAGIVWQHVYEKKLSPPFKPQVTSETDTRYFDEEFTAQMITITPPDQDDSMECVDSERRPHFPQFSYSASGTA
Description: as §1
Biochemical activity of Akt1 kinase was assessed using a Luciferase-Coupled Chemiluminescent Kinase assay (LCCA) format. Kinase activity was measured as the percent ATP remaining following the kinase reaction. Remaining ATP was detected by luciferase-luciferin-coupled chemiluminescence. Specifically, the reaction was initiated by mixing test compounds, 1 μM ATP, 5 μM crosstide peptide and 1.3 nM Akt1 (baculovirus expressed human Akt1 kinase domain residues R144-A480, activated with PDK1) in a 20 uL assay buffer (20 mM Tris-HCL pH 7.5, 10 mM MgCl2, 0.01% Triton X-100, 1 mM DTT, 3 mM MnCl2). The mixture is incubated at ambient temperature for 3 hours after which 20 μL luciferase-luciferin mix is added and the chemiluminescent signal read using a Wallac Victor2 reader. The luciferase-luciferin mix consists of 50 mM HEPES, pH 7.8, 8.5 μg/mL oxalic acid (pH 7.8), 5 (or 50) mM DTT, 0.4% Triton X-100, 0.25 mg/mL coenzyme A, 63 uM AMP, 28 μg/mL luciferin and 40,000 units/mL luciferase.

[3] = biological target: T3, human p70S6 kinase (p70S6K, kinase domain residues 1-421, T412E mutation) (Homo sapiens, UniProt P23443, T412E); assay: p70S6 kinase assay, Luciferase-Coupled Chemiluminescent Kinase assay (LCCA); conditions: 5 μM ATP, 12 nM p70S6K; read-out: p70S6K inhibition IC50
T3 construct: human p70S6 kinase domainresidues 1-421, containing a T412E mutation; made in house
T3 sequence (P23443 1-421 T412E): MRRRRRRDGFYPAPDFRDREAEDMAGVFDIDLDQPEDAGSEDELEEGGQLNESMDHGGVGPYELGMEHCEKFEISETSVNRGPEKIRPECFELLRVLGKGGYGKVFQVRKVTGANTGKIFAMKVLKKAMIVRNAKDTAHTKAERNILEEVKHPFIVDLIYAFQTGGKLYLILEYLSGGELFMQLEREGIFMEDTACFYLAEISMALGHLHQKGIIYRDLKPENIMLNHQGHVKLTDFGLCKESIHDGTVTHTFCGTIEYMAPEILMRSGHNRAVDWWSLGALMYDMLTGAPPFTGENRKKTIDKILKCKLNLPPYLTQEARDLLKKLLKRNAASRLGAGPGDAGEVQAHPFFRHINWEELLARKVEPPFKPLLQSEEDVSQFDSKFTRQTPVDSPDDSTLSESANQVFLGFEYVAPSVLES
Description: as §1
Biochemical activity of p70S6 kinase was assessed using a Luciferase-Coupled Chemiluminescent Kinase assay (LCCA) format. Kinase activity was measured as the percent ATP remaining following the kinase reaction. Remaining ATP was detected by luciferase-luciferin-coupled chemiluminescence. Specifically, the reaction was initiated by mixing test compounds, 5 μM ATP, 5 μM RRRLSSLRA peptide and 12 nM p70S6K (baculovirus expressed human p70S6 kinase domainresidues 1-421, containing a T412E mutation) in a 20 uL assay buffer (20 mM Tris-HCL pH 7.5, 10 mM MgCl2, 0.02% Triton X-100, 100 mM DTT, 2 mM MnCl2). The mixture is incubated at ambient temperature for 2 hours after which 20 μL luciferase-luciferin mix is added and the chemiluminescent signal read using a Wallac Victor^2 reader. The luciferase-luciferin mix consists of 50 mM HEPES, pH 7.8, 8.5 μg/mL oxalic acid (pH 7.8), 5 (or 50) mM DTT, 0.4% Triton X-100, 0.25 mg/mL coenzyme A, 63 uM AMP, 28 μg/mL luciferin and 40,000 units/mL luciferase.

Row | SMILES | IC50 [1] | IC50 [2] | IC50 [3]
1 | CN(C)CCOC(c1ccc(Cl)cc1)C1CCN(c2ncnc3[nH]nc(Br)c23)CC1 (stereo not shown) [Entry 2, 2-{[[1-(3-bromo-1H-pyrazolo[3,4-d]pyrimidin-4-yl)piperidin-4-yl](4-chlorophenyl)methyl]oxy}-N,N-dimethylethanamine] | 50 to 500 nM | < 50 nM | < 50 nM
2 | CC(C)(C)c1ccc(CN2CCN(c3ncnc4[nH]nc(Br)c34)CC2)cc1 [Entry 7, 3-bromo-4-(4-{[4-(1,1-dimethylethyl)phenyl]methyl}piperazin-1-yl)-1H-pyrazolo[3,4-d]pyrimidine] | > 2000 nM | > 2000 nM | < 50 nM
3 | FC(F)(F)c1ccc(CN2CCN(c3ncnc4[nH]nc(Br)c34)CC2)cc1 [Entry 11, 3-bromo-4-(4-{[4-(trifluoromethyl)phenyl]methyl}piperazin-1-yl)-1H-pyrazolo[3,4-d]pyrimidine] | > 2000 nM | 500 to 2000 nM | < 50 nM
4 | Clc1ccc(CN2CCN(c3ncnc4[nH]nc(Br)c34)CC2)cc1 [Entry 19, 3-bromo-4-{4-[(4-chlorophenyl)methyl]piperazin-1-yl}-1H-pyrazolo[3,4-d]pyrimidine] | > 2000 nM | 50 to 500 nM | < 50 nM
5 | Clc1ccc(CN2CCN(c3ncnc4[nH]nc(Br)c34)CC2)cc1Cl [Entry 27, 3-bromo-4-{4-[(3,4-dichlorophenyl)methyl]piperazin-1-yl}-1H-pyrazolo[3,4-d]pyrimidine] | > 2000 nM | 50 to 500 nM | < 50 nM
6 | Brc1n[nH]c2ncnc(N3CCN(Cc4ccc(-c5ccccc5)cc4)CC3)c12 [Entry 30, 4-[4-(biphenyl-4-ylmethyl)piperazin-1-yl]-3-bromo-1H-pyrazolo[3,4-d]pyrimidine] | > 2000 nM | > 2000 nM | < 50 nM
7 | C[C@H]1CN(c2ncnc3[nH]nc(Br)c23)CCN1Cc1ccc(Cl)cc1 [Entry 31, 3-bromo-4-{(3S)-4-[(4-chlorophenyl)methyl]-3-methylpiperazin-1-yl}-1H-pyrazolo[3,4-d]pyrimidine] | > 2000 nM | 500 to 2000 nM | < 50 nM
8 | COc1ccc(CN2CCN(c3ncnc4[nH]nc(Br)c34)CC2)cc1 [Entry 32, 3-bromo-4-(4-{[4-(methyloxy)phenyl]methyl}piperazin-1-yl)-1H-pyrazolo[3,4-d]pyrimidine] | > 2000 nM | 500 to 2000 nM | < 50 nM
9 | OC(c1ccc2cc[nH]c2c1)N1CCN(c2ncnc3[nH]nc(Br)c23)CC1 (stereo not shown) [Entry 99, [4-(3-bromo-1H-pyrazolo[3,4-d]pyrimidin-4-yl)piperazin-1-yl](1H-indol-6-yl)methanol] |  | 500 to 2000 nM | 50 to 500 nM
10 | Fc1cc([C@H](OCCN2CCCC2)C2CCN(c3ncnc4[nH]nc(Br)c34)CC2)ccc1Cl [Entry 100, 3-bromo-4-(4-{(R)-(4-chloro-3-fluorophenyl)[(2-pyrrolidin-1-ylethyl)oxy]methyl}piperidin-1-yl)-1H-pyrazolo[3,4-d]pyrimidine] |  | < 50 nM | < 50 nM
11 | Clc1ccc(OC2CCN(c3ncnc4[nH]nc(Br)c34)CC2)cc1 [Entry 101, 3-bromo-4-{4-[(4-chlorophenyl)oxy]piperidin-1-yl}-1H-pyrazolo[3,4-d]pyrimidine] |  | 500 to 2000 nM | 50 to 500 nM
12 | CCN(CC)CCO[C@@H](c1ccc(Cl)cc1)C1CCN(c2ncnc3[nH]nc(Br)c23)CC1 [Entry 102, 2-{[(R)-[1-(3-bromo-1H-pyrazolo[3,4-d]pyrimidin-4-yl)piperidin-4-yl](4-chlorophenyl)methyl]oxy}-N,N-diethylethanamine] |  | < 50 nM | < 50 nM
13 | Clc1ccc(OC2CCN(c3ncnc4[nH]nc(Br)c34)CC2)c(NCCN2CCCC2)c1 [Entry 103, 2-{[1-(3-bromo-1H-pyrazolo[3,4-d]pyrimidin-4-yl)piperidin-4-yl]oxy}-5-chloro-N-(2-pyrrolidin-1-ylethyl)aniline] |  | 50 to 500 nM | 50 to 500 nM
